Laboratory results taken from patent US10662214B2, “Compound of 4′-thionucleoside, as well as preparation method therefor, pharmaceutical composition thereof and application thereof” (Sichuan Kelun-Biotech Biopharmaceutical Co., Ltd., priority 2015, dated 2020).

What was measured:
[1] = Intravenous toxicity test in mice (administration for 7 days); assay type: in vivo; details: mouse, in vivo, iv
From the text: This test was used to investigate the toxic reactions after intravenous administration of compound C8 to normal KM mice for 7 consecutive days.
KM mice passing the quarantine control were randomized into 4 groups (3 mice/gender/group). The test compound and vehicle control were formulated according to Experimental example 2. The mortality, appearance, behavior, mental status, secretion and excreta etc. of the animals were observed every day for 7 consecutive days after the administration, and the animals were anatomized on day 8.

[2] = Oral toxicity test in mice (administration for 7 days); assay type: in vivo; details: once per day for 7 days
Protocol: Normal Male and female Kunming mice (SPF grade, obtained from Laboratory Animal Center in Sichuan Academy of Chinese Medicine Science) were randomized by weight into groups. The test compound and vehicle control were formulated according to Experimental example 2. The dosage volume was 10 mL/kg, and the administration was performed by oral gavage, once per day for 7 consecutive days.

[3] = tested on: gastric cancer cell NCI-N87; experiment: CCK-8 inhibition of proliferation, NCI-N87; assay type: cell-based, human; details: for inhibitory effect on gastric cancer cell NCI-N87 (in words): FIG. 1: 5-10000 nM; for IC50: Homo sapiens, NCI-N87, CCK-8, 72 h incubation
Protocol: (§1) The tumor cell lines employed in the present experiment were gastric cancer cell NCI-N87 (obtained from Guangzhou Jennio Biological Technology Co., Ltd.), colorectal cancer cell HCT-116 (obtained from Chengdu Center for Safety Evaluation of Drugs), colorectal cancer cell HCT-15 and pancreatic cancer cell BxPC-3 (both obtained from ATCC, US).
(§2) Each of the cell lines is cultured in a corresponding culture medium (RPMI-1640, IMDM and L-15 culture medium (manufacturer: Gibco)) supplemented with 10% heat inactivated Fetal Bovine Serum (manufacturer: Sigma), in an incubator at 37° C. and 5% CO2.
(§3) For each type of tumor cells, a blank group, a vehicle group (containing 1‰ DMSO) and 8 groups with a test compound at concentrations of 5 nM, 10 nM, 50 nM, 100 nM, 500 nM, 1000 nM, 5000 nM, and 10000 nM (with each concentration in triplicate) were set.
(§4) Appropriate amounts of test compounds were weighted, and dissolved in DMSO (cell culture grade, Sigma) to prepare stock solutions of various concentration gradients according to desired concentrations. During incubation, they were diluted by 1000 times as necessary, and incubation solutions with various drug concentrations were prepared (compound stock solution:medium containing 2% FBS=1:1000).
(§5) The experiment was performed according to a CCK-8 method as described below. Cancer cells to be tested were seeded in a 96-well culture plate at a concentration of 5˜10×10^4/mL (100 μL/well), followed by incubation at 37° C. and 5% CO2 for 24 h. The medium was discarded, and incubation solutions with different drug concentrations (200 μL) were respectively added to each well, and the cells were further incubated for 72 h. After the incubation, a CCK-8 solution (20 μL/well) was added to each well to be tested, and the incubation was continued for 4 h in the incubator. OD values at two wavelengths (Detection wavelength: 450 nm, and reference wavelength: 650 nm) were determined on a multifunctional fully-automatic microplate reader.
(§6) The inhibitory rate of tumor cell growth was calculated according to the following formula: Inhibitory rate=[(ODvehicle−ODblank)−(ODdrug−ODblank)]/(ODvehicle−ODblank)*100%
(§7) Based on the inhibitory rate, a concentration-inhibitory rate curve was fit using GraphPad prism 5.0 software, and IC50 was calculated.

[4] = tested on: colorectal cancer cell HCT-15; experiment: CCK-8 inhibition of proliferation, HCT-15; assay type: cell-based, human; details: for inhibitory effect on colorectal cancer cell HCT-15 (in words): FIG. 1: 5-10000 nM; for IC50: Homo sapiens, HCT-15, CCK-8, 72 h incubation
Protocol: as §1, §2, §3, §4, §5, §6, §7

[5] = tested on: pancreatic cancer cell BxPC-3; experiment: CCK-8 inhibition of proliferation, BxPC-3; assay type: cell-based, human; details: for inhibitory effect on pancreatic cancer cell BxPC-3 (in words): FIG. 1: 5-10000 nM; for IC50: Homo sapiens, BXPC-3, CCK-8, 72 h incubation
Protocol: as §1, §2, §3, §4, §5, §6, §7

**Q.** For `Nc1ccn([C@@H]2S[C@H](CO)[C@@H](O)[C@@H]2F)c(=O)n1` [Compound A, 1-((2R,3S,4S,5R)-3-fluoro-4-hydroxy-5-(hydroxymethyl)tetrahydrothiophen-2-yl)cytosine, reference compound], which “body weight decrease on day 8, female mice” value [1] is on record?
**A.** The value was 20.2%.

**Q.** And the “body weight decrease on day 8, male mice” value [1]?
**A.** Its value is 18.1%.

**Q.** And the “symptoms observed on day 8” value ([1]; 20 mg/kg)?
**A.** The value was “a hunched stance and weight loss”.

**Q.** And the “dosage at which death of animals occurred” value ([2]; oral gavage)?
**A.** The value was “about 77 μmol/kg”.

**Q.** What about the “Results: mortality (3 Male + 3 Female)” value ([2]; ~77 μmol/kg oral gavage) of the same compound?
**A.** The value was “symptoms, and two”.

**Q.** What does the source list for `C[C@H](NP(=O)(OC[C@H]1S[C@@H](n2ccc(N)nc2=O)[C@@H](F)[C@@H]1O)Oc1ccccc1)C(=O)OCc1ccccc1` (stereo partly drawn) [Compound C2, (S)-benzyl 2-(((((2R,3S,4S,5R)-5-(4-amino-2-oxopyrimidin-1(2H)-yl)-4-fluoro-3-hydroxytetrahydrothiophen-2-yl)methoxy)(phenoxy)phosphoryl)amino)propanoate]?
**A.** inhibitory effect on gastric cancer cell NCI-N87 (in words) [3]: excellent inhibitory effects; IC50 [3]: 250 nM; inhibitory effect on colorectal cancer cell HCT-15 (in words) [4]: excellent inhibitory effects; IC50 [4]: 2970 nM; inhibitory effect on pancreatic cancer cell BxPC-3 (in words) [5]: excellent inhibitory effects; IC50 [5]: 1280 nM

**Q.** With `CC(C)OC(=O)[C@H](C)N[P@@](=O)(OC[C@H]1S[C@@H](n2ccc(N)nc2=O)[C@@H](F)[C@@H]1O)Oc1ccc2c(c1)OCO2` [Compound C13, (S)-isopropyl 2-(((R)-(((2R,3S,4S,5R)-5-(4-amino-2-oxopyrimidin-1 (2H)-yl)-4-fluoro-3-hydroxytetrahydrothiophen-2-yl)methoxy)(benzo[d][1,3]dioxol-5-yloxy)phosphoryl)amino)propanoate] as the compound, how does the “inhibitory effect on gastric cancer cell NCI-N87 (in words)” value [3] read?
**A.** Its value is “excellent inhibitory effect”.

**Q.** And the IC50 [3]?
**A.** The IC50 was 550 nM.

**Q.** For `CC(C)OC(=O)[C@H](C)N[P@](=O)(OC[C@H]1S[C@@H](n2ccc(N)nc2=O)[C@@H](F)[C@@H]1O)Oc1ccc2c(c1)OCO2` [Compound C14, (S)-isopropyl 2-(((S)-(((2R,3S,4S,5R)-5-(4-amino-2-oxopyrimidin-1(2H)-yl)-4-fluoro-3-hydroxytetrahydrothiophen-2-yl)methoxy)(benzo[d][1,3]dioxol-5-yloxy)phosphoryl)amino)propanoate], which “inhibitory effect on gastric cancer cell NCI-N87 (in words)” value [3] is on record?
**A.** Its value is “excellent inhibitory effects”.

**Q.** What about the IC50 [3] of the same compound?
**A.** Its IC50 is 180 nM.

**Q.** What about the “inhibitory effect on colorectal cancer cell HCT-15 (in words)” value [4] of the same compound?
**A.** Its value is “excellent inhibitory effects”.

**Q.** What about the IC50 [4] of the same compound?
**A.** The IC50 was 9780 nM.

**Q.** And the “inhibitory effect on pancreatic cancer cell BxPC-3 (in words)” value [5]?
**A.** The value was “excellent inhibitory effects”.

**Q.** And the IC50 [5]?
**A.** Its IC50 is 2820 nM.

**Q.** Which “inhibitory effect on gastric cancer cell NCI-N87 (in words)” value [3] does the source give for `C[C@H](NP(=O)(OC[C@H]1S[C@@H](n2ccc(N)nc2=O)[C@@H](F)[C@@H]1O)Oc1ccccc1)C(=O)OCc1ccc(F)cc1` (stereo partly drawn) [Compound C15, (2S)-4-fluorobenzyl 2-(((((2R,3S,4S,5R)-5-(4-amino-2-oxopyrimidin-1(2H)-yl)-4-fluoro-3-hydroxytetrahydrothiophen-2-yl)methoxy)(phenoxy)phosphoryl)amino)propanoate] here?
**A.** The value was “excellent inhibitory effects”.

**Q.** What about the IC50 [3] of the same compound?
**A.** The IC50 was 240 nM.

**Q.** And the “inhibitory effect on colorectal cancer cell HCT-15 (in words)” value [4]?
**A.** The value was “excellent inhibitory effects”.

**Q.** What about the IC50 [4] of the same compound?
**A.** The IC50 was 4080 nM.

**Q.** What about the “inhibitory effect on pancreatic cancer cell BxPC-3 (in words)” value [5] of the same compound?
**A.** The value was “excellent inhibitory effects”.

**Q.** What about the IC50 [5] of the same compound?
**A.** Its IC50 is 1800 nM.

**Q.** Which “inhibitory effect on gastric cancer cell NCI-N87 (in words)” value [3] does the source give for `CC(C)OC(=O)[C@H](C)NP(=O)(OC[C@H]1S[C@@H](n2ccc(N)nc2=O)[C@@H](F)[C@@H]1O)Oc1cccc2c1OCCO2` (stereo partly drawn) [Compound C16, (S)-isopropyl 2-(((((2R,3S,4S,5R)-5-(4-amino-2-oxopyrimidin-1(2H)-yl)-4-fluoro-3-hydroxytetrahydrothiophen-2-yl)methoxy)((2,3-dihydrobenzo[b][1,4]dioxin-5-yl)oxy)phosphoryl)amino)propanoate] here?
**A.** Its value is “excellent inhibitory effects”.

**Q.** What about the IC50 [3] of the same compound?
**A.** The IC50 was 300 nM.

**Q.** And the “inhibitory effect on pancreatic cancer cell BxPC-3 (in words)” value [5]?
**A.** The value was “excellent inhibitory effects”.

**Q.** What about the IC50 [5] of the same compound?
**A.** The IC50 was 1150 nM.

**Q.** For `CC(C)OC(=O)[C@H](C)NP(=O)(OC[C@H]1S[C@@H](n2ccc(N)nc2=O)[C@@H](F)[C@@H]1O)Oc1ccc(F)c2c1CCO2` (stereo partly drawn) [Compound C17, (S)-isopropyl 2-(((((2R,3S,4S,5R)-5-(4-amino-2-oxopyrimidin-1(2H)-yl)-4-fluoro-3-hydroxytetrahydrothiophen-2-yl)methoxy)((7-fluoro-2,3-dihydrobenzofuran-4-yl)oxy)phosphoryl)amino)propanoate], which “inhibitory effect on gastric cancer cell NCI-N87 (in words)” value [3] is on record?
**A.** The value was “excellent inhibitory effects”.

**Q.** And the IC50 [3]?
**A.** Its IC50 is 630 nM.

**Q.** What about the “inhibitory effect on pancreatic cancer cell BxPC-3 (in words)” value [5] of the same compound?
**A.** Its value is “excellent inhibitory effects”.

**Q.** And the IC50 [5]?
**A.** The IC50 was 3800 nM.

**Q.** Which “inhibitory effect on pancreatic cancer cell BxPC-3 (in words)” value [5] does the source give for `CC(C)OC(=O)[C@H](C)NP(=O)(OC[C@H]1S[C@@H](n2ccc(N)nc2=O)[C@@H](F)[C@@H]1O)Oc1ccc2c(c1)OCC2` (stereo partly drawn) [Compound C18, (S)-isopropyl 2-(((((2R,3S,4S,5R)-5-(4-amino-2-oxopyrimidin-1(2H)-yl)-4-fluoro-3-hydroxytetrahydrothiophen-2-yl)methoxy)((2,3-dihydrobenzofuran-6-yl)oxy)phosphoryl)amino)propanoate] here?
**A.** Its value is “excellent inhibitory effect”.

**Q.** And the IC50 [5]?
**A.** Its IC50 is 2740 nM.

**Q.** Which “inhibitory effect on gastric cancer cell NCI-N87 (in words)” value [3] does the source give for `CC(C)OC(=O)[C@H](C)NP(=O)(OC[C@H]1S[C@@H](n2ccc(N)nc2=O)[C@@H](F)[C@@H]1O)Oc1ccc2ccoc2c1` (stereo partly drawn) [Compound C19, (S)-isopropyl 2-(((((2R,3S,4S,5R)-5-(4-amino-2-oxopyrimidin-1(2H)-yl)-4-fluoro-3-hydroxytetrahydrothiophen-2-yl)methoxy)(benzofuran-6-yloxy)phosphoryl)amino)propanoate] here?
**A.** The value was “excellent inhibitory effects”.

**Q.** What about the IC50 [3] of the same compound?
**A.** The IC50 was 350 nM.

**Q.** What about the “inhibitory effect on pancreatic cancer cell BxPC-3 (in words)” value [5] of the same compound?
**A.** The value was “excellent inhibitory effects”.

**Q.** And the IC50 [5]?
**A.** The IC50 was 680 nM.
